From patent publication US20260305610A1, “TRIAZOLE COMPOUND, AND PREPARATION METHOD THEREFOR, HERBICIDAL COMPOSITION AND USE THEREOF” (QINGDAO KINGAGROOT CHEMICAL COMPOUND CO., LTD., priority 2023, published 2026)

What was measured:
[1] = tested on: monocotyledonous and dicotyledonous weeds; assay: Pre-emergence test experiment (weeds); type: in vivo; design: key: 9: completely dead; 8: growth control rate is greater than or equal to 90% and less than 100%; 7: growth control rate is greater than or equal to 80% and less than 90%; 6: growth control rate is greater than or equal to 70% and less than 80%; growth control rate is greater than or equal to 50% and less than 70%; 4: growth control rate is greater than or equal to 30% and less than 50%; growth control rate is greater than or equal to 20% and less than 30%; growth control rate is greater than or equal to 10% and less than 20%; growth control rate is less than 10%; 0: no effect; details: 30 g a.i./ha
major crops = assay: Pre-emergence test experiment (crops); type: in vivo; design: key: 9: completely dead; 8: growth control rate is greater than or equal to 90% and less than 100%; 7: growth control rate is greater than or equal to 80% and less than 90%; 6: growth control rate is greater than or equal to 70% and less than 80%; growth control rate is greater than or equal to 50% and less than 70%; 4: growth control rate is greater than or equal to 30% and less than 50%; growth control rate is greater than or equal to 20% and less than 30%; growth control rate is greater than or equal to 10% and less than 20%; growth control rate is less than 10%; 0: no effect; details: 30 g a.i./ha

| SMILES | Pre-emergence activity level (growth control rate) on Amaranthus retroflexus [1] | Pre-emergence activity level (growth control rate) on Descurainia sophia [1] | Pre-emergence activity level (growth control rate) on Digitaria sanguinalis [1] | Pre-emergence activity level (growth control rate) on Setaria viridis [1] | Pre-emergence activity level (growth control rate) on Solanum nigrum [1] | Pre-emergence activity level (growth control rate) on Veronica [1] | Pre-emergence plant damage level (growth control rate) on Corn (major crops) | Pre-emergence plant damage level (growth control rate) on Cotton (major crops) | Pre-emergence plant damage level (growth control rate) on Soybean (major crops) |
| --- | --- | --- | --- | --- | --- | --- | --- | --- | --- |
| CCc1ccc(-n2cnc(C(F)F)n2)nc1Oc1cccc(C(F)(F)F)c1 [Compound 72] | 9 | 9 | 7 (growth control rate is greater than or equal to 80% and less than 90%) | 8 (growth control rate is greater than or equal to 90% and less than 100%) | 9 | 9 | 0 | 0 | 0 |
| COCc1cc(Oc2cccc(C(F)(F)F)c2)nc(-n2cnc(C(F)(F)F)n2)c1 [Compound 68] | 9 | 8 (growth control rate is greater than or equal to 90% and less than 100%) | 7 (growth control rate is greater than or equal to 80% and less than 90%) | 8 (growth control rate is greater than or equal to 90% and less than 100%) | 7 (growth control rate is greater than or equal to 80% and less than 90%) | 8 (growth control rate is greater than or equal to 90% and less than 100%) | 0 | 0 | 0 |
| Cc1ccc(-n2cnc(C(F)F)n2)nc1Oc1cccc(OC(F)(F)F)c1 [Compound 83] | 9 | 9 | 9 | 9 | 9 | 9 | 0 | 0 | 0 |
| Cc1ccc(-n2cnc(C(F)(F)F)n2)nc1Oc1cccc(Cl)c1 [Compound 40] | 9 | 9 | 7 (growth control rate is greater than or equal to 80% and less than 90%) | 7 (growth control rate is greater than or equal to 80% and less than 90%) | 7 (growth control rate is greater than or equal to 80% and less than 90%) | 9 | 0 | 0 | 0 |
| COCc1ccc(-n2cnc(C(F)(F)F)n2)nc1Oc1cccc(Cl)c1 [Compound 139] | 9 | 9 | 9 | 9 | 9 | 9 | 0 | 0 | 0 |
| CCc1ccc(-n2cnc(C(F)(F)F)n2)nc1Oc1cccc(OC(F)F)c1 [Compound 133] | 9 | 9 | 9 | 9 | 9 | 9 | 0 | 0 | 0 |
| CCc1ccc(-n2cnc(C(C)(F)F)n2)nc1Oc1cccc(C(F)(F)F)c1 [Compound 18] | 9 | 9 | 8 (growth control rate is greater than or equal to 90% and less than 100%) | 8 (growth control rate is greater than or equal to 90% and less than 100%) | 8 (growth control rate is greater than or equal to 90% and less than 100%) | 9 | 0 | 0 | 0 |
| CCc1ccc(-n2cnc(C(F)(F)C(F)(F)F)n2)nc1Oc1cccc(C(F)(F)F)c1 [Compound 19] | 9 | 9 | 8 (growth control rate is greater than or equal to 90% and less than 100%) | 8 (growth control rate is greater than or equal to 90% and less than 100%) | 8 (growth control rate is greater than or equal to 90% and less than 100%) | 9 | 0 | 0 | 0 |
| CCc1ccc(-n2cnc(C(F)(F)F)n2)nc1Oc1ccc(F)c(OC(F)(F)F)c1 [Compound 136] | 9 | 9 | 9 | 9 | 9 | 9 | 0 | 0 | 0 |
| FC(F)(F)c1cccc(Oc2nc(-n3cnc(C(F)(F)F)n3)ccc2Cl)c1 [Compound 7] | 9 | 9 | 8 (growth control rate is greater than or equal to 90% and less than 100%) | 9 |  | 9 | 0 | 0 | 0 |
| COc1cc(Oc2cccc(C(F)(F)F)c2)nc(-n2cnc(C(F)(F)F)n2)c1 [Compound 3] | 9 | 9 | 8 (growth control rate is greater than or equal to 90% and less than 100%) | 9 | 9 | 9 | 0 | 0 | 0 |
| CCc1ccc(-n2cnc(C(F)(F)F)n2)nc1Oc1cccc(CF)c1 [Compound 85] | 9 |  |  |  |  | 9 | 0 | 0 | 0 |
| COCc1ccc(-n2cnc(C(F)(F)C(F)(F)F)n2)nc1Oc1cccc(C(F)(F)F)c1 [Compound 141] | 8 (growth control rate is greater than or equal to 90% and less than 100%) | 9 | 9 | 8 (growth control rate is greater than or equal to 90% and less than 100%) | 9 | 9 | 0 | 0 | 0 |
| CCc1ccc(-n2cnc(C(F)(F)F)n2)nc1Oc1cncc(C(F)(F)F)c1 [Compound 17] | 9 | 9 | 9 | 9 | 9 | 9 | 0 | 0 | 0 |
